The results in this text go back to PubChem BioAssay (NCI).

SMILES strings stand for the structures. Values joined by “and” are separate entries in the source; they are usually repeats but may differ in a detail not shown here. Identical values can stand only once.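 Protocol summary: plate cells (96-well), add compound at 5 concentrations, incubate 48 h, interpolate endpoints linearly. GI50: concentration for 50% inhibition of growth. TGI denotes the concentration required for complete inhibition of growth.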 Where only a bound is given, the exact number is not on record here.

Among the test systems are MDA-MB-231 breast; A549 NSCLC; U251 CNS; OVCAR-8 ovarian; HL-60(TB) leukemia; UACC-62 melanoma; DU-145 prostate; NCI-H23 lung; A498 renal; EKVX NSCLC.
What all share (test): growth of human tumour cells (NCI), 48 h

Regarding `COc1ccc2nc(N/N=C(\C)c3ccccn3)cc(C)c2c1`, the GI50 in the test on MDA-MB-231 breast was 232 nM; in the test with A549 NSCLC, 315 nM; in the test with U251 CNS, 261 nM; in the test with OVCAR-8 ovarian, 286 nM; in the test on HL-60(TB) leukemia, 384 nM; in the test on UACC-62 melanoma, 275 nM. Also, the GI50 with DU-145 prostate was 215 nM; with NCI-H23 lung it was 440 nM; in the test on A498 renal, 812 nM; in the test on EKVX NSCLC, 134 nM. Besides, the TGI with MDA-MB-231 breast was found to be 1870 nM; with A549 NSCLC, 3240 nM; in the test with U251 CNS, 1280 nM; in the test on OVCAR-8 ovarian it was 2530 nM; with HL-60(TB) leukemia, 7010 nM; with UACC-62 melanoma, 1010 nM. Besides, the TGI came to 1170 nM with DU-145 prostate, 4460 nM with NCI-H23 lung, 7020 nM in the test on A498 renal and 971 nM with EKVX NSCLC.
Regarding `C[C@@H]1C[C@@H](O)[C@]2(O)O[C@@H]3C[C@@]4(C=O)[C@@H](CC[C@@H]5[C@@H]4CC[C@]4(C)[C@@H](C6=CC(=O)OC6)CC[C@]54O)C[C@H]3O[C@@H]2O1`, the TGI with MDA-MB-231 breast is 236 nM; with A549 NSCLC, 11.7 nM and 41.3 nM; in the test with U251 CNS it was 72.5 nM and 158 nM and 69.7 nM; with OVCAR-8 ovarian, 57 nM and 130 nM and 116 nM; in the test on HL-60(TB) leukemia, 28.5 nM and 32.2 nM and 16.9 nM; with UACC-62 melanoma, 46.5 nM and 213 nM and 89.5 nM. The TGI is 111 nM in the test with DU-145 prostate; 115 nM and 39.9 nM with A498 renal; 96.4 nM and 104 nM in the test on EKVX NSCLC. Moreover, the GI50 was 14.6 nM in the test with A549 NSCLC; 44.9 nM and 15.3 nM in the test with U251 CNS; 39.3 nM and 14.3 nM in the test on OVCAR-8 ovarian; 15 nM and 6.92 nM in the test on HL-60(TB) leukemia; 51.5 nM and 21.6 nM in the test with UACC-62 melanoma; 28.2 nM and 5 nM in the test on NCI-H23 lung. Also, the GI50 was 9.98 nM with A498 renal and 10.4 nM in the test on EKVX NSCLC.
With `COc1cc(/C(C#N)=C/c2ccc3c(c2OC)OCO3)cc2c1OCO2`, the GI50 in the test on MDA-MB-231 breast is 753 nM; in the test with A549 NSCLC, 87.9 nM; in the test with U251 CNS, 110 nM; in the test on OVCAR-8 ovarian, 243 nM; with HL-60(TB) leukemia it was 31.4 nM; in the test with UACC-62 melanoma, 53.1 nM. Moreover, the GI50 in the test with DU-145 prostate is 122 nM; with NCI-H23 lung, 162 nM; with A498 renal it was 51 nM; with EKVX NSCLC it was 652 nM. For the same molecule, the TGI in the test with MDA-MB-231 breast is 19400 nM; with A549 NSCLC it was over 100000 nM; in the test with U251 CNS, 14000 nM; in the test with OVCAR-8 ovarian it was over 60900 nM; in the test on HL-60(TB) leukemia, 922 nM; with UACC-62 melanoma it was 22300 nM. Besides, the TGI was 3630 nM in the test with DU-145 prostate, 11600 nM in the test with NCI-H23 lung, 785 nM with A498 renal and over 100000 nM in the test with EKVX NSCLC.
With `CS(=O)(=O)CCNCc1nc(-c2ccc3ncnc(Nc4ccc(F)c(Cl)c4)c3c2)cs1`, the GI50 with MDA-MB-231 breast is 23600 nM; in the test with A549 NSCLC it was 15800 nM; in the test with U251 CNS, over 25000 nM; in the test with OVCAR-8 ovarian it was 14400 nM; in the test on HL-60(TB) leukemia, over 12300 nM; in the test with UACC-62 melanoma, 17600 nM. Further, the GI50 in the test with DU-145 prostate was 5490 nM; in the test with NCI-H23 lung, over 25000 nM; with A498 renal, 3320 nM; with EKVX NSCLC it was 92.7 nM. Moreover, the TGI in the test with MDA-MB-231 breast was over 25000 nM; in the test on A549 NSCLC it was over 25000 nM; in the test on U251 CNS, over 25000 nM; in the test on OVCAR-8 ovarian, over 25000 nM; in the test on HL-60(TB) leukemia, over 17800 nM; with UACC-62 melanoma, over 25000 nM. Further, the TGI with DU-145 prostate is over 25000 nM; in the test on NCI-H23 lung it was over 25000 nM; with A498 renal it was 20500 nM; in the test on EKVX NSCLC, over 25000 nM.
As to `COC(=O)N[C@H]1CCc2c(Br)c(OC)c(OC)c(OC)c2-c2ccc(SC)c(=O)cc21`, the GI50 in the test with MDA-MB-231 breast, in the test with A549 NSCLC, with U251 CNS, in the test with OVCAR-8 ovarian, in the test with HL-60(TB) leukemia and with UACC-62 melanoma was under 10 nM each time. In addition, the GI50 with DU-145 prostate, in the test on NCI-H23 lung, in the test on A498 renal and in the test on EKVX NSCLC was under 10 nM in each case. For the same molecule, the TGI in the test with MDA-MB-231 breast was 14000 nM; with A549 NSCLC, over 52600 nM; in the test with U251 CNS it was 15000 nM; in the test on OVCAR-8 ovarian it was over 77200 nM; in the test with HL-60(TB) leukemia, under 10 nM; in the test with UACC-62 melanoma, 18000 nM. For the same molecule, the TGI with DU-145 prostate is 145 nM; with NCI-H23 lung, 18500 nM; in the test on A498 renal it was under 10 nM; in the test with EKVX NSCLC, over 85400 nM.
On to `O=C(CN1CCN(c2ncccn2)CC1)Nc1ccc(Cl)cc1C(=O)c1ccccc1Cl`, for which the GI50 in the test on MDA-MB-231 breast was over 100000 nM; with A549 NSCLC it was 47600 nM; with U251 CNS it was over 100000 nM; with OVCAR-8 ovarian, over 100000 nM; with HL-60(TB) leukemia, 25300 nM; with UACC-62 melanoma, 92800 nM. Besides, the GI50 with DU-145 prostate, in the test on NCI-H23 lung, with A498 renal and in the test on EKVX NSCLC was over 100000 nM throughout. For the same molecule, the TGI in the test on MDA-MB-231 breast, with A549 NSCLC, in the test with U251 CNS, in the test with OVCAR-8 ovarian, with HL-60(TB) leukemia and in the test on UACC-62 melanoma was over 100000 nM each time. Moreover, the TGI with DU-145 prostate, in the test with NCI-H23 lung, with A498 renal and with EKVX NSCLC was over 100000 nM throughout.
As to `O=P(O)(CCP(=O)(O)c1ccccc1)c1ccccc1`, the TGI in the test with MDA-MB-231 breast, in the test with A549 NSCLC, in the test with U251 CNS, in the test on OVCAR-8 ovarian, in the test on HL-60(TB) leukemia and with UACC-62 melanoma was over 100000 nM each time. In addition, the TGI in the test on DU-145 prostate, in the test on NCI-H23 lung, in the test on A498 renal and in the test with EKVX NSCLC was over 100000 nM each time.
For the molecule `CCOc1cc2ncc(C#N)c(Nc3ccc(OCc4cccc(F)c4)c(Cl)c3)c2cc1NC(=O)CC1CCSS1` (configuration not stated), the GI50 is 1020 nM in the test on MDA-MB-231 breast; 542 nM in the test with A549 NSCLC; over 6880 nM in the test with U251 CNS; 6360 nM with OVCAR-8 ovarian; 3480 nM in the test with HL-60(TB) leukemia; over 25000 nM with UACC-62 melanoma. For the same molecule, the GI50 is 561 nM in the test with DU-145 prostate, 2080 nM with NCI-H23 lung, over 25000 nM in the test with A498 renal and 740 nM in the test on EKVX NSCLC. Also, the TGI in the test with MDA-MB-231 breast is over 25000 nM; in the test on A549 NSCLC, 1160 nM; in the test on U251 CNS, over 25000 nM; in the test with OVCAR-8 ovarian, over 25000 nM; in the test on HL-60(TB) leukemia it was over 25000 nM; in the test with UACC-62 melanoma it was over 25000 nM. The TGI is 1360 nM with DU-145 prostate, over 25000 nM in the test on NCI-H23 lung, over 25000 nM with A498 renal and over 14300 nM in the test with EKVX NSCLC.
